Assay results taken from US10533231B2, “Artificial bioluminescent enzyme” (NATIONAL INSTITUTE OF ADVANCED INDUSTRIAL SCIENCE AND …, priority 2012, dated 2020).

These molecules were tested on COS-7 cells (assay: Comparison of luminescence intensity of ALucs (Example 1-2)). Settings: COS-7 cultured overnight, Promega assay solution, LAS-4000.
Type: cell-based, African green monkey
Source text: The artificial luciferase (ALuc) genes synthesized by the above process were subcloned into mammalian cell expression vectors (pcDNA3.1 (+)). Each expression vector was transfected with African green monkey kidney-derived COS-7 cells, and the luminescence intensity, luminescence stability, and red-shifted degree of artificial luciferases (ALucs) were compared (FIGS. 2 to 5).
First, the luminescence intensity of artificial luciferases (ALucs) was compared (FIG. 2). For the comparison, COS-7 cells containing a vector encoding each luciferase were cultured overnight, and then the relative luminescence intensity was measured by using an assay solution, which is a mixture of a cell lysis solution and a substrate, produced by Promega, and a luminescence image analyzer (LAS-4000).

Row | Molecule | luminescence intensity higher than that of conventional GLuc, Renilla luciferase and MpLuc4
1 | ALuc15: artificial luciferase, SEQ ID NO: 12 (protein, Synthetic ALuc15) MMGIKVLFALICFALVQANPTENKDDIDIVGVEGKFGTTDLETDLFTIVEDMNVISRDTDVDANRADRGKLPGKKLPLEVLKELEANAQKAGCTRGCLICLSHIKCTAKMKKWLPGRCESWEGDKETGQGGIGEAIVDIPEIPGFKDLEPMEQFIAQVDLCVDCTTGCLKGLANVKCSDLLKKWLPSRCATFASKIQAQVDKIKGAGGS | about 50 folds
2 | ALuc10: artificial luciferase, SEQ ID NO: 11 (protein, Synthetic ALuc10) MMEIQVLFALICFALVQANPTENKDDIDIVGVEGKFGTTDLETDLFTIVEDMNVISRDTNLANSDADRGKLPGKKLPLEVLKELEANAQKAGCTRGCLICLSHIKCTAKMKKWLPGRCESWEGDKETGQGGIGEAIVDIPEIPGFKDLEPMEQFIAQVDLCVDCTTGCLKGLANVKCSDLLKKWLPSRCATFASKIQAQVDKIKGAGGS | about 50 folds
3 | ALuc18: artificial luciferase, SEQ ID NO: 14 (protein, Synthetic ALuc18) MMGIKVLFALICFALVQANPTENKDDIDIVGVEGKFGTTDLETDLFTIVEDMNVISRDTDVDANRADRGRRGHGGLPGKKMPLEVLLELEANAQRAGCTRGCLICLSKIKCTAKMKKWLPGRCESWAGDKETGQGGITEEETVDIPEIPGFKDLEPMEQFIAQVDLCVDCTTGCLKGLANVKCSDLLKKWLPSRCATFASKIQAQVDKIKGAGGS | about 50 folds

What follows are molecules tested on artificial luciferase (ALuc) (assay: Effects of heavy metal ions as additive for assay buffer (Example 2-3)). Settings: 1 ppm in HBSS buffer after C3 lysis.
Type: cell-based
Procedure: This example examined the effects of a heavy metal ion as an additive for an assay buffer (FIG. 25). […] After 16-hour incubation in a CO2 incubator, 50 μL of a C3 solution was added to each well to allow for cell lysis for 20 minutes. 1 ppm of each type of heavy metal ion shown in FIG. 25 and 50 μL of a substrate-containing HBSS buffer were added to the lysate simultaneously, and the relative luminescence intensities were immediately measured with an LAS-4000. After the substrate-containing assay buffer was further added, the luminescence at the 8- and 16-minute point was measured to examine the luminescence stability.

Row | comprehensive evaluation of luminescence intensity and stability | Molecule | effect of heavy metal additive on luminescence intensity
4 | excellent additives | [Al+3] [Al(III)] | suitable to be added to C3 and HBSS
5 |  | [Ca+2] [Ca(II)] | suitable to be added to C3 and HBSS
6 |  | [Cd+2] [Cd(II)] | significantly decrease the luminescence intensity
7 |  | [Co+2] [Co(II)] | significantly decrease the luminescence intensity
8 | excellent additives | [Fe+3] [Fe(III)] | suitable to be added to C3 and HBSS
9 |  | [Mg+2] [Mg(II)] | suitable to be added to C3 and HBSS
10 | excellent additives | [Mo] [Mo(VI)] | 
11 |  | [Ni+2] [Ni(II)] | significantly decrease the luminescence intensity
12 | excellent additives | [Zn+2] [Zn(II)] | 

Row | Molecule | comprehensive evaluation of luminescence intensity and stability | effect of heavy metal additive on luminescence intensity
13 | [Cu+2] [Cu(II)] | excellent additives | suitable to be added to C3 and HBSS

The molecules below were run on COS-7 cells (assay: Enzymatic activity confirmation of ALuc (section 3-1, 3-2)). Settings: vs conventional copepod luciferases.
Type: cell-based, African monkey
Procedure: First, using a known lipid reagent for gene introduction, an expression vector encoding ALuc is introduced into African monkey-derived COS-7 cells; as a control, an expression vector having a known GLuc without any mutation into the cells is also introduced in the same manner. At a predetermined time (from 10 to 20 hours, for example, 16 hours) after the introduction of the vector, a cell lysate is prepared using a known lysis reagent.
Thereafter, the cell lysate is mixed with a known substrate solution containing coelenterazine, and its color intensity, temporal stability in luminescence, etc., are measured.
The luminescence intensity may be found by measuring the intensity at a specific wavelength using a known luminescence spectrophotometer after addition of a known substrate. By performing the measurement every minute, the temporal stability in luminescence can be evaluated. To measure a shift to a longer wavelength, scanning of the entire wavelength is necessary.

Row | Molecule | luminescence stability (general statement)
14 | ALuc15: artificial luciferase, SEQ ID NO: 12 (protein, Synthetic ALuc15) MMGIKVLFALICFALVQANPTENKDDIDIVGVEGKFGTTDLETDLFTIVEDMNVISRDTDVDANRADRGKLPGKKLPLEVLKELEANAQKAGCTRGCLICLSHIKCTAKMKKWLPGRCESWEGDKETGQGGIGEAIVDIPEIPGFKDLEPMEQFIAQVDLCVDCTTGCLKGLANVKCSDLLKKWLPSRCATFASKIQAQVDKIKGAGGS | remarkably stable luminescence signals
15 | ALuc21: artificial luciferase, SEQ ID NO: 26 (protein, Synthetic ALuc21) MMGIKVLFALICFALVQANATINEEDIDLVAIGGSFATTDLETDLFTIVEDMNVISRDTDVDANRADRGRRGKLPGKKLPLEVLKELEANAQKAGCTRGCLICLSHIKCTAKMKKWLPGRCESWEGDKETGQGGIGEAIVDIPEIPGFKDLEPMEQFIAQVDLCVDCTTGCLKGLANVKCSDLLKKWLPSRCATFASKIQAQVDKIKGAGGS | remarkably stable luminescence signals
16 | ALuc17: artificial luciferase, SEQ ID NO: 24 (protein, Synthetic ALuc17) MMGIKVLFALICFALVQANPTENKDDIDIVGVEGKFGTTDLETDLFTIVEDMNVISRDTDVDANRADRGRRGKMPGKKLPKAVLIELEANAQKAGCHRGCLICLSHIKCTAKMKEWLPGRCESWGGDKETGQAGIVGAIVDIPEIPGFKDLEPMEQFIAQVDLCVDCTTGCLKGLANVKCSDLLKKWLPSRCATFASKIQAQVDKIKGAGGS | remarkably stable luminescence signals
17 | ALuc26: artificial luciferase, SEQ ID NO: 28 (protein, Synthetic Aluc26) MMGVKLIFAVLCVAVAQANATINENFEDIDLVAIGGSFADLETDLFTIVEDMNVISRDTDVDANRGGRGRRGKLPGKKLPLEVLKELEANAQKAGCTRGCLICLSHIKCTAKMKKWLPGRCESWEGDKETGQGGIGEAIVDIPEIPGFKNLAPMEQFIAQVDLCADCTTGCLKGLANVKCSNLLKKWLPSRCAGFANKIQAQVDTIKGLGGS | remarkably stable luminescence signals
18 | ALuc28: artificial luciferase, SEQ ID NO: 30 (protein, Synthetic ALuc28) MMGVKLIFAVLCVAVAQANATINENFEDIDLVAIGGSFADLETDLFTIVEDMNVISRDTDVDANRGGRGRRGKLPGKKLPLEVLKELEANAQKAGCTRGCLICLSHIKCTAKMKKWLPGRCESWEGDKETGQGGIGEAIVDIPEIPGFKYLAPMEQFIAQVDLCADCTTGCLKGLANVYCSYLLKKWLPSRCAGFAYKIQAQVDTIKGLGGS | remarkably stable luminescence signals
19 | ALuc29: artificial luciferase, SEQ ID NO: 31 (protein, Synthetic ALuc29) MMGVKLIFAVLCVAVAQANATINENFEDIDLVAIGGSFADLETDLFTIVEDMNVISRDTDVDANRGGRGRRGKLPGKKLPLEVLKELEANAQKAGCTRGCLICLSHIKCTAKMKKWLPGRCESWEGDKETGQGGIGEAIVDIPEIPGFKWLAPMEQFIAQVDLCADCTTGCLKGLANVWCSWLLKKWLPSRCAGFAWKIQAQVDTIKGLGGS | remarkably stable luminescence signals
20 | ALuc27: artificial luciferase, SEQ ID NO: 29 (protein, Synthetic ALuc27) MMGVKLIFAVLCVAVAQANATINENFEDIDLVAIGGSFADLETDLFTIVEDMNVISRDTDVDANRGGRGRRGKLPGKKLPLEVLKELEANAQKAGCTRGCLICLSHIKCTAKMKKWLPGRCESWEGDKETGQGGIGEAIVDIPEIPGFKFLAPMEQFIAQVDLCADCTTGCLKGLANVFCSFLLKKWLPSRCAGFAFKIQAQVDTIKGLGGS | remarkably stable luminescence signals
21 | ALuc19: artificial luciferase, SEQ ID NO: 25 (protein, Synthetic ALuc19) MMGIKVLFALICFALVQANPTENKDDIDIVGVEGKFGTTDLETDLFTIVEDMNVISRDTDVDANRADRGRRGRKLPGKKLPKEVLKILEANAQRAGCHRGCLICLSHIKCTAKMKQWLPGRCESWEGDKETGQGGIGGPIVDIGVLGPEIPGFKDLEPMEQFIAQVDLCVDCTTGCLKGLANVKCSDLLKKWLPSRCATFASKIQAQVDKIKGAGGS | remarkably stable luminescence signals
22 | ALuc18: artificial luciferase, SEQ ID NO: 14 (protein, Synthetic ALuc18) MMGIKVLFALICFALVQANPTENKDDIDIVGVEGKFGTTDLETDLFTIVEDMNVISRDTDVDANRADRGRRGHGGLPGKKMPLEVLLELEANAQRAGCTRGCLICLSKIKCTAKMKKWLPGRCESWAGDKETGQGGITEEETVDIPEIPGFKDLEPMEQFIAQVDLCVDCTTGCLKGLANVKCSDLLKKWLPSRCATFASKIQAQVDKIKGAGGS | remarkably stable luminescence signals
